The record followed here is patent publication EP3290412A1, “HIV-1 NUCLEOCAPSID INHIBITORS” (Università degli Studi di Siena, priority 2016, dated 2018).

Like-named read-outs stand apart in the source and are kept apart here.

For assay [1], the target named is T1, full length (1-55) HIV-1 NCp7 (Human immunodeficiency virus type 1 group M subtype B, UniProt P12493).
T1 construct: recombinant full length (1-55) HIV-1 NCp7 proteins; made in house
Nature of the assay: Electromobility Shift Assay (EMSA), competition for ssDNA binding. Conditions: NCp7 300 nM, M13mp18 ssDNA; positive = >25% inhibition at 100µM. The text has this: The assay used a recombinant full length (1-55) HIV-1 NCp7 proteins based on the NL4-3 sequence (GenBank accession number AF324493). The protein was expressed and purified as described in [Carteau, S., Gorelick, R. J. & Bushman, F. D. Coupled integration of human immunodeficiency virus type 1 cDNA ends by purified integrase in vitro: stimulation by the viral nucleocapsid protein. Journal of virology 73, 6670-6679 (1999)].
Competition for single-stranded (ss) DNA binding was realized by mixing 1 µL of serial dilutions of NC inhibitors (diluted in DMSO) with 44 µL of NCp7 (300 nM) in a reaction buffer (20 mM Tris-HCl pH 7.4, 2 mM MgCl2, 100 mM NaCl, 1 mM DTT). 5 µL of a 10 ng/µL (4 nM) solution of M13mp18 ssDNA (BayouBiolabs) were then added and the tubes were incubated for 25 minutes at 37 °C. The reaction was terminated by chilling the tubes on ice followed by the addition of 5 µL of a loading buffer (30% glycerol, 0.01% xylene cyanol, 10 mM Tris-HCl pH 7.4). Samples were then resolved on 25 cm-long, 1% (w/v) agarose gels (SeaKem LE Agarose, Lonza) in 0.5x TBE. Gels were run in a Sub-Cell GT cuvette (BioRad) for 18 h at room temperature at 3 V/cm, stained with SybrGold (Molecular Probes) and scanned for fluorescence using a Typhoon 8600 (GE Healthcare). The experiments were performed in triplicate. Competition efficiency was realized by measuring the relative distance in pixels between the unbound ssDNA control, the NCp7-bound ssDNA control and the bound ssDNA for each points of the titration with the ImageQuant software. The IC50 was estimated as the NC inhibitors concentrations for which the bound ssDNA migrated at 50% of the distance separating the bound from the unbound ssDNA.

Assay [2] concerns HIV-1 reference strain NL4-3. The assay is described as follows: BiCycle assay (MT-2 then TZM-bl cells). Format: cell-based. As for the experimental part:
BiCycle Assay is cell based assay allowing the evaluation of the antiviral activity of HIV-1 inhibitors on the whole replication cycle of HIV-1. The assay consists in a first round of infection of the T-cell line MT-2 followed by infection of TZM-bl cells. MT-2 cells were seeded at a concentration of 50,000 cells/well in a 96-well plate and infected with the HIV-1 reference strain NL4-3 in presence of five-fold dilutions of the investigational compounds. After 72 hours, 50 µl of supernatant from each well, containing the virus produced in the first round of infection, were used to infect TZM-bl cells seeded in a 96-plate well at a concentration of 30,000 cells/well. Two days later, cells were lysed adding 40 µl of Glo Lysis Buffer (Promega) to each well for 5 minutes, then 40 µl of Brighy-Glo Luciferase Reagent (Promega) were added to each well for relative luminescence units (RLU) counting using Glo-Max Multi Detection System (Promega). RLU values from each well were elaborated using the GraphPad v5.0 software to calculate the IC50 of each compound.

Assay [3] has as its target NC(11-55) (Human immunodeficiency virus type 1, UniProt P12493). The assay is described as follows: NC inhibition assay (NC-induced cTAR DNA destabilization, fluorescence). The assay is classed as biochemical, HIV-1. To be noted: for inhibition at 100 µM: single point screening, positive = >25% inhibition at 100µM. From the text: The NC inhibition assay is based on the nucleic acid chaperone activity of the NC protein. NC destabilizes the secondary structure of cTAR DNA, the complementary sequence of the transactivation response element, which is involved in minus-strand DNA transfer during reverse transcription. In the assay, the cTAR sequence from the HIV-1 Mal strain (Bernacchi et al, J Mol Biol, 2002) is labeled with a dye (Alexa488 fluorophore) and a quencher 4-(4'-dimethylaminophenylazo)benzoic acid (Dabcyl) at its 5' and 3' ends, respectively. In the absence of destabilization, the close proximity of both cTAR ends results in a strong fluorescence quenching of the dye emission by the Dabcyl group. NC(11-55) added to cTAR at a ratio of 10 NC/cTAR melts the bottom of the cTAR stem, which increases the distance between the dye and the quencher and as a result increases the dye fluorescence signal [Shvadchak et al, (2009) Identification by high throughput screening of small compounds inhibiting the nucleic acid destabilization activity of the HIV-1 nucleocapsid protein. Biochimie, 916-923]. NCIs are expected to prevent the NC-induced destabilization of cTAR and thus reverse the NC-induced increase in the fluorescence of the labeled cTAR. The activity of the inhibitor is thus evaluated from the ratio of the fluorescence intensity observed in the presence of NC with the molecule to the one in the absence of the compound.
The doubly labelled cTAR DNA oligonucleotides (55nt) were synthesised and purified by IBA GmbH Nucleic Acids Product Supply (Göttingen, Germany). Extinction coefficient at 260 nm of 5.73 x 10^5 M^-1 cm^-1 was used to determine the concentration of cTAR.
The NC(11-55) peptide (Avilov et al, Antimicrob Agents Chemother, 2012) was synthesized by solid-phase peptide synthesis on a 433A synthesizer (ABI, Foster City, CA) as previously described [De Rocquigny H, (1991) First large scale chemical synthesis of the 72 amino acid HIV-1 nucleocapsid protein NCp7 in an active form. Biochem Biophys Res Commun., 1010-1018]. The peptide was stored lyophilized and was resuspended in water before use. The concentration of peptide was determined by using an extinction coefficient of 5.7 x 10^3 M^-1 cm^-1 at 280 nm. Next, 2.5 molar equivalents of ZnSO4 were added and pH was raised to its final value by adding buffer.
All experiments were performed at 20 °C in 25 mM Tris-HCl (pH 7.5), 30 mM NaCl, and 0.2 mM MgCl2. To evaluate the inhibition activity of compounds on NC-induced cTAR destabilization, cTAR DNA (0.1 µM) was preincubated with 1 µM NC(11-55) (molar ratio NC:cTAR = 10:1) for 15 min at room temperature before addition of compound. For single point screening, all compounds were tested at three final concentrations: 1 µM, 10 µM and 100 µM. For the IC50 determination, inhibition of NC-induced cTAR melting was monitored through addition of increasing concentrations of the selected molecules to the pre-formed NC(11-55)-cTAR complex. After the addition of compound, the mixture was incubated for 15 min at room temperature before the reading. The fluorescence signal was recorded with a plate reader Xenius (SAFAS Monaco) or Fluoromax 3 spectrofluorometer (Horiba Jobin-Yvon), and the excitation and emission wavelengths were 480 and 520 nm, respectively. The spectra were corrected for dilution, buffer fluorescence and screening effect (when it was required). In order to check the occurrence of aggregation, we performed additional reading of absorption with the plate reader Xenius (SAFAS Monaco) or Cary 4000 spectrophotometer (Agilent). […]

Setting [4] is: Human immunodeficiency virus 1, NL43, TZM-bl, read-out: BiCycle IC50 nM.

In the case of `C[C@@H](NC(=O)c1nc(-c2ccc(CNCc3ccccc3)cn2)nc(O)c1O)C1CCCCC1` [Compound 53, (R)-2-(5-((benzylamino)methyl)pyridin-2-yl)-N-(1-cyclohexylethyl)-5,6-dihydroxypyrimidine-4-carboxamide], in assay [1], the EMSA screening results is reported as “Negative”. Moreover, the 50% inhibitory concentration (IC50) in assay [2] (setting [4]) worked out at 530 nM. Besides, in assay [3], the IC50 was found to be 7500 nM and the inhibition at 100 µM was over 25%.

With `CC1CCCC(NC(=O)c2nc(-c3ccccn3)nc(O)c2O)C1` (stereo not drawn) [Compound 57, 5,6-dihydroxy-N-(3-methylcyclohexyl)-2-(pyridin-2-yl)pyrimidine-4-carboxamide], the EMSA screening results in assay [1] is reported as “Positive (A compound showing >25% inhibition when tested at 100µM concentration is considered as "positive")”. Moreover, in assay [2] (setting [4]), the concentration for half-maximal inhibition (IC50) turned out to be 432 nM. In assay [3], this molecule had a 50% inhibitory concentration (IC50) of 35500 nM and an inhibition at 100 µM of over 25%.

Consider `C[C@@H](NC(=O)c1nc(-c2ccc3ccccc3n2)nc(O)c1O)C1CCCCC1` [Compound 22, (R)-N-(1-cyclohexylethyl)-5,6-dihydroxy-2-(quinolin-2-yl)pyrimidine-4-carboxamide], for which the EMSA screening results in assay [1] is “Positive (A compound showing >25% inhibition when tested at 100µM concentration is considered as "positive")”. For the same molecule, in assay [2] (setting [4]), the IC50 was 450 nM. In assay [3], half-maximal inhibition (IC50) required 3000 nM and the inhibition at 100 µM is over 25%.

Regarding `C[C@H](CC1CCCCC1)NC(=O)c1nc(-c2ccccn2)nc(O)c1O` [Compound 64, (R)-N-(1-cyclohexylpropan-2-yl)-5,6-dihydroxy-2-(pyridin-2-yl)pyrimidine-4-carboxamide], in assay [1], the EMSA screening results is “Positive (A compound showing >25% inhibition when tested at 100µM concentration is considered as "positive")”. Besides, the IC50 in assay [2] (setting [4]) is 210 nM. In assay [3], the half-maximal inhibitory concentration (IC50) was determined as 14500 nM and the inhibition at 100 µM was over 25%.

Consider `O=C(NCC1CCCCC1)c1nc(-c2ncccc2Cl)nc(O)c1O` [Compound 16, 2-(3-chloropyridin-2-yl)-N-(cyclohexylmethyl)-5,6-dihydroxypyrimidine-4-carboxamide], for which the EMSA screening results in assay [1] was “Positive (A compound showing >25% inhibition when tested at 100µM concentration is considered as "positive")”. Besides, in assay [2] (Human immunodeficiency virus 1, NL43, MT-2 cells 72 hours then TZM-bl cells two days, NL4-3, read-out: BiCycle IC50), the IC50 is 2050 nM. Besides, the inhibition at 100 µM in assay [3] was over 25%.

In the case of `COc1ccc(-c2nc(O)c(O)c(C(=O)N[C@H](C)C3CCCCC3)n2)nc1` [Compound 32, (R)-N-(1-cyclohexylethyl)-5,6-dihydroxy-2-(5-methoxypyridin-2-yl)pyrimidine-4-carboxamide], the EMSA screening results in assay [1] is recorded as “Positive (A compound showing >25% inhibition when tested at 100µM concentration is considered as "positive")”. Also, the IC50 in assay [2] (setting [4]) is 341 nM; in assay [3] it was 45000 nM. The molecule further displayed an inhibition at 100 µM in assay [3] of over 25%.

Regarding `O=C(OCCC1CCCCC1)c1nc(-c2ccccn2)nc(O)c1O` [Compound 12, 2-cyclohexylethyl 5,6-dihydroxy-2-(pyridin-2-yl)pyrimidine-4-carboxylate], the EMSA screening results in assay [1] is listed as “Negative”. Further, the IC50 in assay [2] (setting [4]) stood at 2820 nM. In assay [3], this molecule returned an IC50 of 57500 nM and an inhibition at 100 µM of over 25%.

Turning to `C[C@@H](NC(=O)c1nc(-c2cc3ccccc3cn2)nc(O)c1O)C1CCCCC1` [Compound 25, (R)-N-(1-cyclohexylethyl)-5,6-dihydroxy-2-(isoquinolin-3-yl)pyrimidine-4-carboxamide], the EMSA screening results in assay [1] is reported as “Positive (A compound showing >25% inhibition when tested at 100µM concentration is considered as "positive")”. Besides, the figures for the IC50 in assay [2] (setting [4]) and in assay [3] were 32 nM and 3000 nM, respectively. Also, the inhibition at 100 µM in assay [3] was over 25%.

As to `O=C(OC1CCCCC1)c1nc(-c2ccccn2)nc(O)c1O` [Compound 13, cyclohexyl 5,6-dihydroxy-2-(pyridin-2-yl)pyrimidine-4-carboxylate], in assay [1], the EMSA screening results was “Negative”. In assay [3], this molecule had an IC50 of 237000 nM and an inhibition at 100 µM of over 25%.

For the molecule `C[C@@H](NC(=O)c1nc(-c2ccc(Cl)cn2)nc(O)c1O)C1CCCCC1` [Compound 49, (R)-2-(5-chloropyridin-2-yl)-N-(1-cyclohexylethyl)-5,6-dihydroxypyrimidine-4-carboxamide], the IC50 in assay [2] (setting [4]) was found to be 352 nM; in assay [3], 9000 nM. In assay [3], the inhibition at 100 µM is over 25%.

As to `C[C@@H](NC(=O)c1nc(-c2cc(N)ccn2)nc(O)c1O)C1CCCCC1` [Compound 48, (R)-2-(4-aminopyridin-2-yl)-N-(1-cyclohexylethyl)-5,6-dihydroxypyrimidine-4-carboxamide], the values for the 50% inhibitory concentration (IC50) in assay [2] (setting [4]) and in assay [3] were 1340 nM and 4000 nM, respectively. Also, the inhibition at 100 µM in assay [3] was over 25%.

Take `Cc1nnc(C(=O)NC(C)(C)c2nc(C(=O)NCc3ccc(F)cc3)c(O)c(=O)n2C)o1` [Raltegravir™, Raltegravir, reference compound]: the EC50 in assay [2] (Human immunodeficiency virus 1, NL43, TZM-bl, read-out: Mean EC50 (nM)) worked out at 1 nM. Besides, the “HIV-1 nucleocapsid inhibition (result in words)” value in assay [3] (same experimental settings as the compounds of the invention) was “inactive”.

`O=C(NCC1CCC1)c1nc(-c2cc3ccccc3cn2)nc(O)c1O` [Compound 47, N-(cyclobutylmethyl)-5,6-dihydroxy-2-(isoquinolin-3-yl)pyrimidine-4-carboxamide]: the IC50 in assay [2] (setting [4]) came to 870 nM. In assay [3], this molecule came in with a half-inhibitory concentration (IC50) of 6500 nM and an inhibition at 100 µM of over 25%.

What is called IC50 is the midpoint of a concentration-inhibition curve. One may read the inhibition as the relative decrease from the control value, in per cent. Higher therefore signals a response far below the control. Broadly, the EC50 is the concentration needed to bring the measured effect to its halfway point.
